Laboratory results from BindingDB's records for patent US20250313563 (The Broad Institute, 2025).
Several values for one entry are separate records, joined by “and”; a condition that tells them apart may be missing. Equal entries are not always repeated.

Experiments:
[1] = molecular target: Glycogen synthase kinase-3 beta (Homo sapiens, UniProt P49841); experiment: TR-FRET Assay
How it was run: (§1)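 Kinase activity, measured after a 30-minute compound preincubation, was stopped with EDTA and quantified by TR-FRET using a Tb-labelled pSer641 antibody paired with streptavidin-d2.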

[2] = molecular target: Glycogen synthase kinase-3 alpha (Homo sapiens, UniProt P49840); experiment: TR-FRET Assay
How it was run: as §1

Glycogen synthase kinase-3 alpha, sequence (P49840 whole entry): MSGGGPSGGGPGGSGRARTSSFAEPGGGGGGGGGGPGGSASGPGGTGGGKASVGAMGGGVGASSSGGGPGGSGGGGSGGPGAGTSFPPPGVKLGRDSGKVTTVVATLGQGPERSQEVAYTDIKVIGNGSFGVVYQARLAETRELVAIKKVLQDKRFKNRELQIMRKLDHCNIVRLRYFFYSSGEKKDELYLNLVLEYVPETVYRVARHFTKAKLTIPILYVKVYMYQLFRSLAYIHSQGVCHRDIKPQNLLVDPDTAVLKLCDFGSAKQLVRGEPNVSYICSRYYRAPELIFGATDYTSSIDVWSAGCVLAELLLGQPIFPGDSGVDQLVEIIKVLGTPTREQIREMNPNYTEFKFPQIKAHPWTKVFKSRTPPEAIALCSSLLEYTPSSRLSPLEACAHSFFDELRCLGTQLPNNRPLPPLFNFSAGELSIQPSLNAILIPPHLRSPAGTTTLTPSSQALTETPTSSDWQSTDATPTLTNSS
Glycogen synthase kinase-3 beta, sequence (P49841 whole entry): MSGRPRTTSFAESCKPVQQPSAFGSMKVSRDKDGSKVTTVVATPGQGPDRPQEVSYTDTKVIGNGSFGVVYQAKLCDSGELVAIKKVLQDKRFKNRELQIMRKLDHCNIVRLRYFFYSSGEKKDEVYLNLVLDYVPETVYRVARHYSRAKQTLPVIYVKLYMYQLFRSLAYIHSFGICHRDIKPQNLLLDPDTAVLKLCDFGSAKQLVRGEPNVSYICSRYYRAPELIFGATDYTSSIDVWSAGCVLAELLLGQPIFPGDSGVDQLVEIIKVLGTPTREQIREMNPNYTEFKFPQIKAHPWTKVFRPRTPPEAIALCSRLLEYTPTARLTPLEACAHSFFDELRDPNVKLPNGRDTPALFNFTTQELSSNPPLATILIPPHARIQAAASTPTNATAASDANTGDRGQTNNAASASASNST

Compound	IC50 [1]	IC50 [2]
CCC1(c2cccc(-c3ccnc(C)c3C)c2)C2=CN=NC2NC2=C1C(=O)NC(C)(C)C2 (stereo unspecified) [US20250313563, Compound 945994]	100 to 1000 nM	< 100 nM
CC[C@@]1(c2cccc(-c3cc(C)ncc3OC)c2)C2=CN=NC2NC2=C1C(=O)CC(C)(C)C2 (stereo partly specified) [US20250313563, Compound 945995]	< 100 nM and 1000 to 5000 nM	< 100 nM and 100 to 1000 nM
CC[C@]1(c2cccc(-c3cn(C)nc3C)c2)C2=C(CC(C)(C)NC2=O)NC2N=NC(C)=C21 (stereo partly specified) [US20250313563, Compound 945996]	1000 to 5000 nM	100 to 1000 nM
CC[C@@]1(c2cccc(-c3ccnc(C)c3OC)c2)C2=CN=NC2NC2=C1C(=O)CC(C)(C)C2 (stereo partly specified) [US20250313563, Compound 945997]	< 100 nM and 1000 to 5000 nM	< 100 nM and 100 to 1000 nM
CC[C@@]1(c2cccc(S(=O)(=O)C3CC3)c2)C2=CN=NC2NC2=C1C(=O)NC(C)(C)C2 (stereo partly specified) [US20250313563, Compound 945999]	< 100 nM	< 100 nM
CC[C@]1(c2cccc(-c3cc(C)nn3C)c2)C2=CN=NC2NC2=C1C(=O)CC(C)(C)C2 (stereo partly specified) [US20250313563, Compound 946000]	> 5000 nM	> 5000 nM
CC[C@@]1(c2cccc(-c3cn(C)nc3C)c2)C2=C(CC(C)(C)NC2=O)NC2N=NC(C)=C21 (stereo partly specified) [US20250313563, Compound 946001]	< 100 nM and 100 to 1000 nM	< 100 nM
CC[C@]1(c2cccc(-c3ccnc(C)c3OC)c2)C2=CN=NC2NC2=C1C(=O)CC(C)(C)C2 (stereo partly specified) [US20250313563, Compound 946002]	> 5000 nM	> 5000 nM
CC[C@]1(c2cccc(-c3cc[n+]([O-])c(C)c3)c2)C2=CN=NC2NC2=C1C(=O)CC(C)(C)C2 (stereo partly specified) [US20250313563, Compound 946055]	1000 to 5000 nM	100 to 1000 nM
CC[C@]1(c2ccccc2)C2=CN=NC2NC2=C1C(=O)C(O)C(C)(C)C2 (stereo partly specified) [US20250313563, Compound 946056]	> 5000 nM	100 to 1000 nM
CC1(C)CC(=O)C2=C(C1)NC1=C(CN=N1)[C@@]21CO[C@H](c2ccccc2)C1 [US20250313563, Compound 946072]	100 to 1000 nM	< 100 nM
CC1(C)CC(=O)C2=C(C1)NC1N=NC=C1[C@@]21CO[C@@H](c2ccccc2)C1 (stereo partly specified) [US20250313563, Compound 946073]	100 to 1000 nM	< 100 nM
CC1(C)CC(=O)C2=C(C1)NC1=C(CN=N1)[C@]21CCC[C@H](C#N)C1 [US20250313563, Compound 946078]	> 5000 nM	1000 to 5000 nM
CC1(C)CC(=O)C2=C(C1)NC1=C(CN=N1)[C@]21CCC[C@@H](C#N)C1 [US20250313563, Compound 946080]	1000 to 5000 nM	1000 to 5000 nM
CCn1nccc1-c1cccc([C@]2(CC)C3=CN=NC3NC3=C2C(=O)CC(C)(C)C3)c1 (stereo partly specified) [US20250313563, Compound 946089]	< 100 nM and 100 to 1000 nM	< 100 nM
CC[C@@]1(c2cccc(-c3ccnn3C(C)C)c2)C2=CN=NC2NC2=C1C(=O)CC(C)(C)C2 (stereo partly specified) [US20250313563, Compound 946091]	< 100 nM	< 100 nM
CCCn1nccc1-c1cccc([C@@]2(CC)C3=CN=NC3NC3=C2C(=O)CC(C)(C)C3)c1 (stereo partly specified) [US20250313563, Compound 946094]	1000 to 5000 nM	100 to 1000 nM
CC[C@]1(c2cccc(-c3c(C)nnn3C)c2)C2=CN=NC2NC2=C1C(=O)CC(C)(C)C2 (stereo partly specified) [US20250313563, Compound 946099]	< 100 nM and 100 to 1000 nM	< 100 nM
CC[C@@]1(c2cccc(-c3c(C)nnn3C)c2)C2=CN=NC2NC2=C1C(=O)CC(C)(C)C2 (stereo partly specified) [US20250313563, Compound 946100]	1000 to 5000 nM	100 to 1000 nM

Compound	IC50 [1]	IC50 [2]
CC[C@]1(c2cccc(-c3ccnc(C)c3)c2)C2=CN=NC2NC2=C1C(=O)CC(C)(C)[C@H]2F (stereo partly specified) [US20250313563, Compound 946103]	1000 to 5000 nM	100 to 1000 nM
CC[C@@]1(c2cccc(-c3ccnc(C)c3)c2)C2=CN=NC2NC2=C1C(=O)CC(C)(C)[C@H]2F (stereo partly specified) [US20250313563, Compound 946104]	100 to 1000 nM	100 to 1000 nM
Cc1ccc(S(=O)(=O)N2CCC3(CC2)C2=C(N=NC2)NC2=C3C(=O)CC(C)(C)C2)cc1Cl [US20250313563, Compound 947241]	< 100 nM	< 100 nM
CC1(C)CC(=O)C2=C(C1)NC1=C(CN=N1)C21CCN(S(=O)(=O)c2cccc(OC(F)F)c2)CC1 [US20250313563, Compound 947242]	< 100 nM and 100 to 1000 nM	< 100 nM
CC1(C)CC(=O)C2=C(C1)NC1=C(CN=N1)C21CCN(S(=O)(=O)c2cccc(Cl)c2)CC1 [US20250313563, Compound 947243]	< 100 nM and 1000 to 5000 nM	< 100 nM and 100 to 1000 nM
CC1(C)CC(=O)C2=C(C1)NC1=C(CN=N1)C21CCN(S(=O)(=O)c2cccc(C(F)(F)F)c2)CC1 [US20250313563, Compound 947244]	< 100 nM	< 100 nM
COc1ccc(C)c(S(=O)(=O)N2CCC3(CC2)C2=C(N=NC2)NC2=C3C(=O)CC(C)(C)C2)c1 [US20250313563, Compound 947245]	100 to 1000 nM	< 100 nM
CC1(C)CC(=O)C2=C(C1)NC1=C(CN=N1)C21CCN(S(=O)(=O)c2ccc(OC(F)F)cc2)CC1 [US20250313563, Compound 947246]	< 100 nM and 100 to 1000 nM	< 100 nM
CN(C)C(=O)c1cccc(S(=O)(=O)N2CCC3(CC2)C2=C(N=NC2)NC2=C3C(=O)CC(C)(C)C2)c1 [US20250313563, Compound 947247]	< 100 nM	< 100 nM
CC1(C)CC(=O)C2=C(C1)NC1=C(CN=N1)C21CCN(S(=O)(=O)c2ccc(C(F)F)cc2)CC1 [US20250313563, Compound 947248]	< 100 nM	< 100 nM
CC1(C)CC(=O)C2=C(C1)NC1=C(CN=N1)C21CCN(S(=O)(=O)c2cccc(Cl)c2Cl)CC1 [US20250313563, Compound 947249]	< 100 nM	< 100 nM
COCc1ccc(S(=O)(=O)N2CCC3(CC2)C2=C(N=NC2)NC2=C3C(=O)CC(C)(C)C2)cc1 [US20250313563, Compound 947250]	< 100 nM	< 100 nM
CC1(C)CC(=O)C2=C(C1)NC1=C(CN=N1)C21CCN(S(=O)(=O)c2ccc(F)cn2)CC1 [US20250313563, Compound 947251]	100 to 1000 nM	100 to 1000 nM
CCc1ncc(S(=O)(=O)N2CCC3(CC2)C2=C(N=NC2)NC2=C3C(=O)CC(C)(C)C2)s1 [US20250313563, Compound 947252]	< 100 nM	< 100 nM
CCOc1cccc(S(=O)(=O)N2CCC3(CC2)C2=C(N=NC2)NC2=C3C(=O)CC(C)(C)C2)c1 [US20250313563, Compound 947253]	< 100 nM and 1000 to 5000 nM	< 100 nM and 100 to 1000 nM
CC1(C)CC(=O)C2=C(C1)NC1=C(CN=N1)C21CCN(S(=O)(=O)c2cccc(C#N)c2)CC1 [US20250313563, Compound 947254]	< 100 nM and 100 to 1000 nM	< 100 nM
COc1ccc(S(=O)(=O)N2CCC3(CC2)C2=C(N=NC2)NC2=C3C(=O)CC(C)(C)C2)c(F)c1 [US20250313563, Compound 947255]	< 100 nM and 100 to 1000 nM	< 100 nM
CC1(C)CC(=O)C2=C(C1)NC1=C(CN=N1)C21CCN(S(=O)(=O)c2ccc(C(F)(F)F)cc2)CC1 [US20250313563, Compound 947256]	< 100 nM	< 100 nM
Cc1nn(C)c(C)c1S(=O)(=O)N1CCC2(CC1)C1=C(N=NC1)NC1=C2C(=O)CC(C)(C)C1 [US20250313563, Compound 947257]	1000 to 5000 nM	100 to 1000 nM
